Results from ChEMBL document CHEMBL1629620 (Antimicrob Agents Chemother, 2009).

What was measured:
[1] = system: HFF; assay: Antiproliferative activity against HFF after 3 days by coulter counter assay; type: cell-based; conditions: Homo sapiens, 72 h
[2] = Cytotoxicity against HFF after 7 days by neutral red uptake assay; type: cell-based; conditions: human, HFF cells
[3] = system: Vaccinia virus; assay: Antiviral activity against Vaccinia virus Copenhagen infected in HFF assessed as reduction of plaque formation after 3 days; type: functional, organism-based; conditions: Orthopoxvirus vaccinia, 72 h
[4] = system: Cowpox virus; assay: Antiviral activity against Cowpox virus Brighton infected in HFF assessed as reduction of plaque formation after 3 days; type: functional, organism-based; conditions: 72 h
[5] = system: Vaccinia virus; assay: Ratio of compound EC50 to cidofovir EC50 for Vaccinia virus Copenhagen; type: functional, Orthopoxvirus vaccinia
[6] = system: Vaccinia virus; assay: Ratio of compound EC50 to cidofovir EC50 for Vaccinia virus WR; type: functional, Orthopoxvirus vaccinia
[7] = system: Cowpox virus; assay: Ratio of compound EC50 to cidofovir EC50 for Cowpox virus Brighton; type: functional
[8] = system: Vaccinia virus; assay: Antiviral activity against Vaccinia virus WR infected in BALB/c mouse assessed as uncured animal at 15 mg/kg, ip bid for 5 days administered 24 hrs after infection relative to control; type: functional, Orthopoxvirus vaccinia; conditions: route intraperitoneal
[9] = system: Vaccinia virus; assay: Antiviral activity against Vaccinia virus WR infected in BALB/c mouse assessed as uncured animal at 50 mg/kg, ip bid for 5 days administered 24 hrs after infection relative to control; type: functional, Orthopoxvirus vaccinia; conditions: route intraperitoneal
[10] = system: Vaccinia virus; assay: Antiviral activity against Vaccinia virus WR infected in HFF assessed as inhibition of DNA synthesis after 24 hrs by PCR analysis; type: functional, organism-based; conditions: Orthopoxvirus vaccinia
[11] = system: Vaccinia virus; assay: Antiviral activity against Vaccinia virus WR infected in HFF assessed as reduction of plaque formation after 3 days; type: functional, organism-based; conditions: Orthopoxvirus vaccinia, 72 h
[12] = system: Cowpox virus; assay: Antiviral activity against Cowpox virus Brighton infected in BALB/c mouse assessed as uncured animal at 1.5 mg/kg, po bid for 5 days administered 3 days after infection relative to control; type: functional
[13] = system: Cowpox virus; assay: Antiviral activity against Cowpox virus Brighton infected in BALB/c mouse assessed as day of death at 15 mg/kg, po bid for 5 days administered 3 days after infection; type: functional
[14] = system: Cowpox virus; assay: Antiviral activity against Cowpox virus Brighton infected in BALB/c mouse assessed as day of death at 1.5 mg/kg, po bid for 5 days administered 3 days after infection; type: functional
[15] = system: Cowpox virus; assay: Antiviral activity against Cowpox virus Brighton infected in BALB/c mouse assessed as uncured animal at 5 mg/kg, po bid for 5 days administered 4 days after infection relative to control; type: functional
[16] = system: Cowpox virus; assay: Antiviral activity against Cowpox virus Brighton infected in BALB/c mouse assessed as day of death at 5 mg/kg, po bid for 5 days administered 4 days after infection; type: functional
[17] = system: Cowpox virus; assay: Antiviral activity against Cowpox virus Brighton infected in BALB/c mouse assessed as uncured animal at 5 mg/kg, po bid for 5 days administered 5 days after infection relative to control; type: functional
[18] = system: Cowpox virus; assay: Antiviral activity against Cowpox virus Brighton infected in BALB/c mouse assessed as day of death at 5 mg/kg, po bid for 5 days administered 5 days after infection; type: functional
[19] = system: Cowpox virus; assay: Antiviral activity against Cowpox virus Brighton infected in BALB/c mouse assessed as uncured animal at 5 mg/kg, po bid for 5 days administered 8 days after infection relative to control; type: functional
[20] = system: Cowpox virus; assay: Antiviral activity against Cowpox virus Brighton infected in BALB/c mouse assessed as day of death at 5 mg/kg, po bid for 5 days administered 8 days after infection; type: functional
[21] = system: Vaccinia virus; assay: Antiviral activity against Vaccinia virus WR infected in BALB/c mouse assessed as uncured animal at 5 mg/kg, ip bid for 5 days administered 24 hrs after infection relative to control; type: functional, Orthopoxvirus vaccinia; conditions: route intraperitoneal
[22] = system: Vaccinia virus; assay: Antiviral activity against Vaccinia virus WR infected in BALB/c mouse assessed as day of death at 15 mg/kg, ip bid for 5 days administered 24 hrs after infection; type: functional, Orthopoxvirus vaccinia; conditions: route intraperitoneal
[23] = system: Cowpox virus; assay: Antiviral activity against Cowpox virus Brighton infected in BALB/c mouse assessed as uncured animal at 15 mg/kg, ip qd for 5 days administered 24 hrs after infection relative to control; type: functional; conditions: route intraperitoneal
[24] = system: Cowpox virus; assay: Antiviral activity against Cowpox virus Brighton infected in BALB/c mouse assessed as uncured animal at 5 mg/kg, ip bid for 5 days administered 24 hrs after infection relative to control; type: functional; conditions: route intraperitoneal
[25] = system: Cowpox virus; assay: Antiviral activity against Cowpox virus Brighton infected in BALB/c mouse assessed as uncured animal at 1.5 mg/kg, ip bid for 5 days administered 24 hrs after infection relative to control; type: functional; conditions: route intraperitoneal
[26] = system: Cowpox virus; assay: Antiviral activity against Cowpox virus Brighton infected in BALB/c mouse assessed as uncured animal at 15 mg/kg, po bid for 5 days administered 24 hrs after infection relative to control; type: functional
[27] = system: Cowpox virus; assay: Antiviral activity against Cowpox virus Brighton infected in BALB/c mouse assessed as uncured animal at 5 mg/kg, po bid for 5 days administered 24 hrs after infection relative to control; type: functional
[28] = system: Cowpox virus; assay: Antiviral activity against Cowpox virus Brighton infected in BALB/c mouse assessed as uncured animal at 1.5 mg/kg, po bid for 5 days administered 24 hrs after infection relative to control; type: functional
[29] = system: Cowpox virus; assay: Antiviral activity against Cowpox virus Brighton infected in BALB/c mouse assessed as uncured animal at 15 mg/kg, po bid for 5 days administered 2 days after infection relative to control; type: functional
[30] = system: Cowpox virus; assay: Antiviral activity against Cowpox virus Brighton infected in BALB/c mouse assessed as uncured animal at 5 mg/kg, po bid for 5 days administered 2 days after infection relative to control; type: functional
[31] = system: Cowpox virus; assay: Antiviral activity against Cowpox virus Brighton infected in BALB/c mouse assessed as uncured animal at 1.5 mg/kg, po bid for 5 days administered 2 days after infection relative to control; type: functional
[32] = system: Cowpox virus; assay: Antiviral activity against Cowpox virus Brighton infected in BALB/c mouse assessed as day of death at 15 mg/kg, po bid for 5 days administered 2 days after infection; type: functional
[33] = system: Cowpox virus; assay: Antiviral activity against Cowpox virus Brighton infected in BALB/c mouse assessed as day of death at 5 mg/kg, po bid for 5 days administered 2 days after infection; type: functional
[34] = system: Cowpox virus; assay: Antiviral activity against Cowpox virus Brighton infected in BALB/c mouse assessed as uncured animal at 15 mg/kg, po bid for 5 days administered 3 days after infection relative to control; type: functional
[35] = system: Cowpox virus; assay: Antiviral activity against Cowpox virus Brighton infected in BALB/c mouse assessed as uncured animal at 5 mg/kg, po bid for 5 days administered 3 days after infection relative to control; type: functional
[36] = system: Vaccinia virus; assay: Antiviral activity against Vaccinia virus WR infected in BALB/c mouse assessed as uncured animal at 15 mg/kg, ip qd for 5 days administered 24 hrs after infection relative to control; type: functional, Orthopoxvirus vaccinia; conditions: route intraperitoneal
[37] = system: Cowpox virus; assay: Antiviral activity against Cowpox virus Brighton infected in BALB/c mouse assessed as uncured animal at 15 mg/kg, ip qd for 5 days administered 4 days after infection relative to control; type: functional; conditions: route intraperitoneal
[38] = system: Cowpox virus; assay: Antiviral activity against Cowpox virus Brighton infected in BALB/c mouse assessed as uncured animal at 15 mg/kg, ip qd for 5 days administered 5 days after infection relative to control; type: functional; conditions: route intraperitoneal
[39] = system: Cowpox virus; assay: Antiviral activity against Cowpox virus Brighton infected in BALB/c mouse assessed as day of death at 15 mg/kg, ip qd for 5 days administered 5 days after infection; type: functional; conditions: route intraperitoneal
[40] = system: Cowpox virus; assay: Antiviral activity against Cowpox virus Brighton infected in BALB/c mouse assessed as uncured animal at 15 mg/kg, ip qd for 5 days administered 8 days after infection relative to control; type: functional; conditions: route intraperitoneal
[41] = system: Cowpox virus; assay: Antiviral activity against Cowpox virus Brighton infected in BALB/c mouse assessed as day of death at 15 mg/kg, ip qd for 5 days administered 8 days after infection; type: functional; conditions: route intraperitoneal
[42] = system: Cowpox virus; assay: Antiviral activity against Cowpox virus Brighton infected in BALB/c mouse assessed as uncured animal at 15 mg/kg, ip qd for 5 days administered 2 days after infection relative to control; type: functional; conditions: route intraperitoneal
[43] = system: Cowpox virus; assay: Antiviral activity against Cowpox virus Brighton infected in BALB/c mouse assessed as uncured animal at 15 mg/kg, ip qd for 5 days administered 3 days after infection relative to control; type: functional; conditions: route intraperitoneal

SMILES: O=c1[nH]c(=O)n([C@H]2C[C@H](O)[C@@H](CO)S2)cc1Br
- IC50 [1]: 0.2 µM
- CC50 at 168 h [2]: > 100 µM
- EC50 [3]: 0.09 µM
- EC50 [4]: 0.05 µM
- Ratio EC50 [5]: 20
- Ratio EC50 [6]: 20
- Ratio EC50 [7]: 20

SMILES: O=c1[nH]c(=O)n([C@H]2C[C@H](O)[C@@H](CO)S2)cc1C(F)(F)F
- IC50 [1]: 0.14 µM
- CC50 at 168 h [2]: > 100 µM
- EC50 [3]: 0.1 µM
- EC50 [4]: 0.08 µM
- Ratio EC50 [5]: 20
- Ratio EC50 [6]: 20
- Ratio EC50 [7]: 20

SMILES: O=c1[nH]c(=O)n([C@H]2C[C@H](O)[C@@H](CO)S2)cc1I
- Activity [8]: 7%
- Activity [9]: 0%
- EC50 [10]: 0.6 µM
- IC50 [1]: 3 µM
- CC50 at 168 h [2]: > 100 µM
- EC50 [3]: 0.5 µM
- EC50 [11]: 0.04 µM
- Activity [12]: 13%
- Activity [13]: 14%
- Activity [14]: 14 days
- Activity [15]: 27%
- Activity [16]: 13.3 days
- Activity [17]: 87%
- Activity [18]: 9.8 days
- Activity [19]: 100%
- Activity [20]: 9.7 days
- Activity [21]: 0%
- Activity [22]: 11%
- Activity [23]: 0%
- Activity [24]: 0%
- Activity [25]: 0%
- Activity [26]: 0%
- Activity [27]: 0%
- Activity [28]: 0%
- Activity [29]: 7%
- Activity [30]: 13%
- Activity [31]: 0%
- Activity [32]: 18%
- Activity [33]: 16 days
- Activity [34]: 7%
- Activity [35]: 0%

SMILES: CC(=O)OC[C@H]1S[C@@H](n2cc(I)c(=O)[nH]c2=O)C[C@@H]1OC(C)=O
- IC50 [1]: 26 µM
- CC50 at 168 h [2]: > 100 µM
- EC50 [3]: 0.9 µM
- EC50 [4]: 0.33 µM
- Ratio EC50 [5]: 20
- Ratio EC50 [6]: 20
- Ratio EC50 [7]: 20

SMILES: Nc1nc(=O)n([C@@H]2S[C@H](CO)[C@@H](O)[C@@H]2O)cc1F
- IC50 [1]: < 0.03 µM
- CC50 at 168 h [2]: > 100 µM
- EC50 [3]: 0.1 µM
- EC50 [4]: 0.4 µM
- Ratio EC50 [5]: 20
- Ratio EC50 [6]: 20
- Ratio EC50 [7]: 20

SMILES: Cc1cn([C@H]2C[C@H](O)[C@@H](CO)S2)c(=O)[nH]c1=O [4'-THIOTHYMIDINE]
- IC50 [1]: < 0.03 µM
- CC50 at 168 h [2]: > 100 µM
- EC50 [3]: 0.03 µM
- EC50 [4]: 0.02 µM
- Ratio EC50 [5]: 20
- Ratio EC50 [6]: 20
- Ratio EC50 [7]: 20

SMILES: Nc1ccn(C[C@@H](CO)OCP(=O)(O)O)c(=O)n1.O.O [CIDOFOVIR]
- Activity [36]: 0%
- IC50 [1]: 1.9 µM
- CC50 at 168 h [2]: > 317 µM
- EC50 [3]: 19 µM
- EC50 [11]: 10 µM
- Activity [37]: 0%
- Activity [38]: 80%
- Activity [39]: 10.5 days
- Activity [40]: 27%
- Activity [41]: 12 days
- Activity [23]: 0%
- Activity [42]: 0%
- Activity [43]: 0%

SMILES: O=c1[nH]c(=O)n([C@H]2C[C@H](O)[C@@H](CO)O2)cc1I [IDOXURIDINE]
- EC50 [10]: 17 µM
- EC50 [11]: 2.8 µM

SMILES: O=C(NN1C(=O)[C@@H]2[C@@H]3C=C[C@@H]([C@H]4C[C@@H]34)[C@@H]2C1=O)c1ccc(C(F)(F)F)cc1 [TECOVIRIMAT]
- EC50 [10]: > 100 µM
- EC50 [11]: 0.07 µM

SMILES: Nc1ccn([C@@H]2S[C@H](CO)[C@@H](O)[C@@H]2O)c(=O)n1 [THIARABINE]
- IC50 [1]: 1 µM
- CC50 at 168 h [2]: > 88 µM
- EC50 [3]: 0.3 µM
- EC50 [4]: 1.6 µM
- Ratio EC50 [5]: 20
- Ratio EC50 [6]: 20
- Ratio EC50 [7]: 20
